# Reference: PubChem BioAssay (NCI)
#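 GI50: concentration for 50% inhibition of growth. TGI: total growth inhibition.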
# Key:
# Assay in all cases: inhibition of tumour cell growth, NCI panel, 384-well format
# [1] = test system: CCRF-CEM leukemia
# [2] = test system: NCI/ADR-RES ovarian
# [3] = test system: UACC-257 melanoma
# [4] = test system: NCI-H226 lung
# [5] = test system: RPMI-8226 leukemia
# [6] = test system: 786-0 renal
# [7] = test system: RXF 393 renal
# [8] = test system: PC-3 prostate
# [9] = test system: CAKI-1 renal
# [10] = test system: HCT-116 colon
# [11] = test system: SF-268 CNS
# [12] = test system: COLO 205 colon
# [13] = test system: HT29 colon
# [14] = test system: SF-539 CNS
# [15] = test system: BT-549 breast
# [16] = test system: SW-620 colon
# [17] = test system: MDA-MB-231 breast
# [18] = test system: LOX IMVI melanoma
# [19] = test system: MDA-MB-468 breast
# [20] = test system: NCI-H23 lung
# [21] = test system: OVCAR-5 ovarian
# [22] = test system: DU-145 prostate
# [23] = test system: UACC-62 melanoma
# [24] = test system: NCI-H322M lung
# [25] = test system: SK-OV-3 ovarian
# [26] = test system: SN12C renal
# [27] = test system: U251 glioblastoma
# [28] = test system: A549 NSCLC
# [29] = test system: MDA-MB-435 melanoma
# [30] = test system: SR leukemia
# [31] = test system: KM12 colon
# [32] = test system: ACHN renal
# [33] = test system: HCT-15 colon
# [34] = test system: K-562 leukemia
# [35] = test system: HOP-92 NSCLC
# [36] = test system: HOP-62 NSCLC
# [37] = test system: HS 578T breast
# [38] = test system: A498 renal
# [39] = test system: HCC-2998 colon
# [40] = test system: TK-10 renal
# [41] = test system: MCF7 breast
# [42] = test system: EKVX NSCLC
# [43] = test system: OVCAR-4 ovarian
# [44] = test system: HL-60(TB) leukemia
# [45] = test system: SK-MEL-28 melanoma
# [46] = test system: NCI-H460 NSCLC
# [47] = test system: T-47D breast
smiles,measurement,setting,value
O=C(NCc1ccncc1)C12CC3CC(C1)CC(c1ccc(Cl)cc1)(C3)C2,GI50,[1],6.92 µM
same,TGI,[1],17.6 µM
same,GI50,[2],9.62 µM
same,TGI,[2],21.8 µM
same,GI50,[3],13.7 µM
same,TGI,[3],26.7 µM
same,GI50,[4],14.4 µM
same,TGI,[4],27.6 µM
same,GI50,[5],3.59 µM
same,TGI,[5],9.73 µM
same,GI50,[6],13.4 µM
same,TGI,[6],26.3 µM
same,GI50,[7],7.13 µM
same,TGI,[7],20 µM
same,GI50,[8],8.88 µM
same,TGI,[8],21.7 µM
same,GI50,[9],14.9 µM
same,TGI,[9],28.3 µM
same,GI50,[10],9.03 µM
same,TGI,[10],22.7 µM
same,GI50,[11],14.2 µM
same,TGI,[11],27.3 µM
same,GI50,[12],13.2 µM
same,TGI,[12],26.1 µM
same,GI50,[13],12.1 µM
same,TGI,[13],24.8 µM
same,GI50,[14],16 µM
same,TGI,[14],29.7 µM
same,GI50,[15],8.85 µM
same,TGI,[15],21.5 µM
same,GI50,[16],13.7 µM
same,TGI,[16],26.8 µM
same,GI50,[17],11.1 µM
same,TGI,[17],23.5 µM
same,GI50,[18],15.9 µM
same,TGI,[18],29.6 µM
same,GI50,[19],5.39 µM
same,TGI,[19],15.1 µM
same,GI50,[20],11.9 µM
same,TGI,[20],24.6 µM
same,GI50,[21],18 µM
same,TGI,[21],31.9 µM
same,GI50,[22],14.5 µM
same,TGI,[22],27.8 µM
same,GI50,[23],14 µM
same,TGI,[23],27.1 µM
same,GI50,[24],17.5 µM
same,TGI,[24],31.5 µM
same,GI50,[25],16 µM
same,TGI,[25],29.6 µM
same,GI50,[26],14.4 µM
same,TGI,[26],27.5 µM
same,GI50,[27],15.3 µM
same,TGI,[27],28.8 µM
same,GI50,[28],13.6 µM
same,TGI,[28],26.7 µM
same,GI50,[29],16.5 µM
same,TGI,[29],30.2 µM
same,GI50,[30],5.05 µM
same,TGI,[30],9.66 µM
same,GI50,[31],13.1 µM
same,TGI,[31],25.9 µM
same,GI50,[32],15.1 µM
same,TGI,[32],28.6 µM
same,GI50,[33],11.7 µM
same,TGI,[33],24.9 µM
same,GI50,[34],4.94 µM
same,TGI,[34],16.3 µM
same,GI50,[35],10.8 µM
same,TGI,[35],23.1 µM
same,GI50,[36],16.1 µM
same,TGI,[36],29.7 µM
same,GI50,[37],11.8 µM
same,TGI,[37],24.2 µM
same,GI50,[38],12.7 µM
same,TGI,[38],25.5 µM
same,GI50,[39],11.1 µM
same,TGI,[39],25.2 µM
same,GI50,[40],14.2 µM
same,TGI,[40],27.4 µM
same,GI50,[41],10.4 µM
same,TGI,[41],23.5 µM
same,GI50,[42],13.2 µM
same,TGI,[42],26 µM
same,GI50,[43],13.6 µM
same,TGI,[43],26.5 µM
same,GI50,[44],2.75 µM
same,TGI,[44],6.12 µM
same,GI50,[45],17.3 µM
same,TGI,[45],31.1 µM
same,GI50,[46],12.7 µM
same,TGI,[46],25.9 µM
same,GI50,[47],9.72 µM
same,TGI,[47],23 µM
Cc1ncsc1-c1ccc(CNC(=O)[C@@H]2C[C@@H](O)CN2C(=O)[C@@H](NC(=O)C2(C#N)CC2)C(C)(C)C)cc1,GI50,[1],> 100 µM
same,TGI,[1],> 100 µM
same,GI50,[2],> 100 µM
same,TGI,[2],> 100 µM
same,GI50,[3],> 100 µM
same,TGI,[3],> 100 µM
same,GI50,[4],> 100 µM
same,TGI,[4],> 100 µM
same,GI50,[5],46.7 µM
same,TGI,[5],> 90.7 µM
same,GI50,[6],> 100 µM
same,TGI,[6],> 100 µM
same,GI50,[7],> 100 µM
same,TGI,[7],> 100 µM
same,GI50,[8],> 100 µM
same,TGI,[8],> 100 µM
same,GI50,[9],> 100 µM
same,TGI,[9],> 100 µM
same,GI50,[10],> 100 µM
same,TGI,[10],> 100 µM
same,GI50,[11],99.7 µM
same,TGI,[11],> 100 µM
same,GI50,[12],> 100 µM
same,TGI,[12],> 100 µM
same,GI50,[13],> 100 µM
same,TGI,[13],> 100 µM
same,GI50,[14],> 100 µM
same,TGI,[14],> 100 µM
same,GI50,[15],> 100 µM
same,TGI,[15],> 100 µM
same,GI50,[16],> 100 µM
same,TGI,[16],> 100 µM
same,GI50,[17],> 100 µM
same,TGI,[17],> 100 µM
same,GI50,[18],> 100 µM
same,TGI,[18],> 100 µM
same,GI50,[19],> 100 µM
same,TGI,[19],> 100 µM
same,GI50,[20],> 100 µM
same,TGI,[20],> 100 µM
same,GI50,[21],> 100 µM
same,TGI,[21],> 100 µM
same,GI50,[22],> 100 µM
same,TGI,[22],> 100 µM
same,GI50,[23],> 100 µM
same,TGI,[23],> 100 µM
same,GI50,[24],> 100 µM
same,TGI,[24],> 100 µM
same,GI50,[25],> 100 µM
same,TGI,[25],> 100 µM
same,GI50,[26],> 100 µM
same,TGI,[26],> 100 µM
same,GI50,[27],> 100 µM
same,TGI,[27],> 100 µM
same,GI50,[28],> 100 µM
same,TGI,[28],> 100 µM
same,GI50,[29],> 100 µM
same,TGI,[29],> 100 µM
same,GI50,[30],> 100 µM
same,TGI,[30],> 100 µM
same,GI50,[31],> 100 µM
same,TGI,[31],> 100 µM
same,GI50,[32],> 100 µM
same,TGI,[32],> 100 µM
same,GI50,[33],> 100 µM
same,TGI,[33],> 100 µM
same,GI50,[34],> 100 µM
same,TGI,[34],> 100 µM
same,GI50,[35],> 100 µM
same,TGI,[35],> 100 µM
same,GI50,[36],> 100 µM
same,TGI,[36],> 100 µM
same,GI50,[37],> 100 µM
same,TGI,[37],> 100 µM
same,GI50,[38],> 100 µM
same,TGI,[38],> 100 µM
same,GI50,[39],> 100 µM
same,TGI,[39],> 100 µM
same,GI50,[40],> 100 µM
same,TGI,[40],> 100 µM
same,GI50,[41],> 100 µM
same,TGI,[41],> 100 µM
same,GI50,[42],> 100 µM
same,TGI,[42],> 100 µM
same,GI50,[43],> 100 µM
same,TGI,[43],> 100 µM
same,GI50,[44],> 100 µM
same,TGI,[44],> 100 µM
same,GI50,[45],> 100 µM
same,TGI,[45],> 100 µM
same,GI50,[46],> 100 µM
same,TGI,[46],> 100 µM
same,GI50,[47],> 100 µM
same,TGI,[47],> 100 µM
